According to patent US11224609B2, “Mithramycin derivatives having increased selectivity and anti-cancer activity” (University of Kentucky Research Foundation, priority 2017, dated 2022):
Like-named read-outs stand apart in the source and are kept apart here.

How the values were obtained:
[1] = test system: PC-3 (prostate cancer, no ETS translocation) cell line; experiment: 72 h growth inhibition (GI50) assay in PC-3; conditions: read-out: PC-3 Prostate cancer No ETS Translocation GI50
[2] = test system: TC-32 (Ewing sarcoma, EWS-FLI1 Type 1) cell line; conditions: for TC-32 Ewing sarcoma EWS-FLI1 Type 1 GI50: 72 h growth inhibition, TC-32 cells; for GI50 ratio PC-3:TC-32: selectivity, GI50 in PC-3 over GI50 in TC-32
PANC-1 cells = experiment: 72 h GI50 assay in PANC-1; conditions: read-out: PANC-1 GI50; 72 h growth inhibition
[3] = test system: A-673 Ewing sarcoma cells (EWS-FLI1 Type 1); experiment: 72 h GI50 assay in A-673; conditions: read-out: A-673 EWS-FLI1 Type 1 GI50; 72 h growth inhibition
[4] = test system: RD-ES Ewing sarcoma cells (EWS-FLI1 Type 2); experiment: 72 h GI50 assay in RD-ES; conditions: read-out: RD-ES EWS-FLI1 Type 2 GI50; 72 h growth inhibition
HCT 116 cells = experiment: 72 h GI50 assay in HCT 116; conditions: read-out: HCT 116 GI50; 72 h growth inhibition
[5] = test system: VCaP prostate cancer cells (TMPRSS2-ERG); experiment: 72 h GI50 assay in VCaP
[6] = test system: TC-71 Ewing sarcoma cells (EWS-FLI1 Type 1); conditions: 72 h growth inhibition
[7] = test system: ES-7 Ewing sarcoma cells (EWS-FLI1 Type 4); experiment: 72 h GI50 assay in ES-7; conditions: read-out: ES-7 EWS-FLI1 Type 4 GI50; 72 h growth inhibition
DU 145 cells = experiment: 72 h GI50 assay in DU 145; conditions: read-out: DU 145 GI50; 72 h growth inhibition
[8] = test system: ES-8 Ewing sarcoma cells (EWS-FLI1 Type 2); experiment: 72 h GI50 assay in ES-8; conditions: read-out: ES-8 EWS-FLI1 Type 2 GI50; 72 h growth inhibition
[9] = test system: Ewing sarcoma cell lines (TC-32, 5838, RD-ES, TC-71, A-673, ES-2, ES-7, ES-8); experiment: Median GI50 in panel of Ewing sarcoma cell lines
DMS 114 cells = experiment: 72 h GI50 assay in DMS 114; conditions: read-out: DMS 114 GI50; 72 h growth inhibition
[10] = test system: 5838 Ewing sarcoma cells (EWS-ERG); experiment: 72 h GI50 assay in 5838
HeLa cells = experiment: 72 h GI50 assay in HeLa; conditions: read-out: HeLa GI50; 72 h growth inhibition
[11] = test system: ES-2 Ewing sarcoma cells (EWS-FLI1 Type 3); experiment: 72 h GI50 assay in ES-2; conditions: read-out: ES-2 EWS-FLI1 Type 3 GI50; 72 h growth inhibition
A549 cells = experiment: 72 h GI50 assay in A549; conditions: read-out: A549 GI50; 72 h growth inhibition
[12] = 72 h growth inhibition, PC-3 cells

Row | Compound | GI50 [1, 12] [µM] | TC-32 Ewing sarcoma EWS-FLI1 Type 1 GI50 [2] [µM] | GI50 ratio PC-3:TC-32 [2] | also measured
1 | COC(=O)C(Cc1cn(Cc2ccccc2)c2ccccc12)NC(=O)C(OC)C1Cc2cc3cc(OC4CC(OC5CC(O)C(O)C(C)O5)C(O)C(C)O4)c(C)c(O)c3c(O)c2C(=O)C1OC1CC(OC2CC(OC3CC(C)(O)C(O)C(C)O3)C(O)C(C)O2)C(O)C(C)O1 (centres unmarked) [Analogue 46] | > 10 | 2.297 |  | 
2 | C=CCn1cc(CC(NC(=O)C(OC)C2Cc3cc4cc(OC5CC(OC6CC(O)C(O)C(C)O6)C(O)C(C)O5)c(C)c(O)c4c(O)c3C(=O)C2OC2CC(OC3CC(OC4CC(C)(O)C(O)C(C)O4)C(O)C(C)O3)C(O)C(C)O2)C(=O)OC)c2ccccc21 (centres unmarked) [Analogue 47] | 3.14 | 2.715 | 1.2 | 
3 | COC(=O)C(Cc1c[nH]c2ccc(OC)cc12)NC(=O)C(OC)C1Cc2cc3cc(OC4CC(OC5CC(O)C(O)C(C)O5)C(O)C(C)O4)c(C)c(O)c3c(O)c2C(=O)C1OC1CC(OC2CC(OC3CC(C)(O)C(O)C(C)O3)C(O)C(C)O2)C(O)C(C)O1 (centres unmarked) [Analogue 49] | 0.617 | 0.675 | 0.9 | 
4 | COC(=O)C(Cc1c[nH]c2ccc([N+](=O)[O-])cc12)NC(=O)C(OC)C1Cc2cc3cc(OC4CC(OC5CC(O)C(O)C(C)O5)C(O)C(C)O4)c(C)c(O)c3c(O)c2C(=O)C1OC1CC(OC2CC(OC3CC(C)(O)C(O)C(C)O3)C(O)C(C)O2)C(O)C(C)O1 (centres unmarked) [Analogue 50] | 0.646 | 0.353 | 1.8 | 
5 | COC(=O)C(Cc1c[nH]c2c(-c3ccccc3)cccc12)NC(=O)C(OC)C1Cc2cc3cc(OC4CC(OC5CC(O)C(O)C(C)O5)C(O)C(C)O4)c(C)c(O)c3c(O)c2C(=O)C1OC1CC(OC2CC(OC3CC(C)(O)C(O)C(C)O3)C(O)C(C)O2)C(O)C(C)O1 (centres unmarked) [Analogue 52] | > 10 | 2.402 |  | 
6 | C=CCc1cccc2c(CC(NC(=O)C(OC)C3Cc4cc5cc(OC6CC(OC7CC(O)C(O)C(C)O7)C(O)C(C)O6)c(C)c(O)c5c(O)c4C(=O)C3OC3CC(OC4CC(OC5CC(C)(O)C(O)C(C)O5)C(O)C(C)O4)C(O)C(C)O3)C(=O)OC)c[nH]c12 (centres unmarked) [Analogue 53] | 2.99 | 0.794 | 3.8 | 
7 | COC(=O)C(Cc1c[nH]c2cc(-n3cc(-c4ccccc4)nn3)ccc12)NC(=O)C(OC)C1Cc2cc3cc(OC4CC(OC5CC(O)C(O)C(C)O5)C(O)C(C)O4)c(C)c(O)c3c(O)c2C(=O)C1OC1CC(OC2CC(OC3CC(C)(O)C(O)C(C)O3)C(O)C(C)O2)C(O)C(C)O1 (centres unmarked) [Analogue 54] | 5.88 | 1.03 | 5.7 | 
8 | COC(=O)C(Cc1c[nH]c2cc(C(F)(F)F)ccc12)NC(=O)C(OC)C1Cc2cc3cc(OC4CC(OC5CC(O)C(O)C(C)O5)C(O)C(C)O4)c(C)c(O)c3c(O)c2C(=O)C1OC1CC(OC2CC(OC3CC(C)(O)C(O)C(C)O3)C(O)C(C)O2)C(O)C(C)O1 (centres unmarked) [Analogue 55] | 2.4 | 2.339 | 1.0 | 
9 | COC(=O)C(Cc1c[nH]c2cc3ccccc3cc12)NC(=O)C(OC)C1Cc2cc3cc(OC4CC(OC5CC(O)C(O)C(C)O5)C(O)C(C)O4)c(C)c(O)c3c(O)c2C(=O)C1OC1CC(OC2CC(OC3CC(C)(O)C(O)C(C)O3)C(O)C(C)O2)C(O)C(C)O1 (centres unmarked) [Analogue 57] | > 10 | 3.505 |  | fold decrease in activity in the TC-32 cell line ([2]; compared with the tryptophan parent): ~34 fold
10 | COC(=O)C(Cc1ccc2ccccc2c1)NC(=O)C(OC)C1Cc2cc3cc(OC4CC(OC5CC(O)C(O)C(C)O5)C(O)C(C)O4)c(C)c(O)c3c(O)c2C(=O)C1OC1CC(OC2CC(OC3CC(C)(O)C(O)C(C)O3)C(O)C(C)O2)C(O)C(C)O1 (centres unmarked) [Analogue 58] | 1.6 | 0.541 | 3.0 | 
11 | COC(=O)C(Cc1cn(C)c2ccccc12)NC(=O)C(Cc1cn(C)c2ccccc12)NC(=O)C(OC)C1Cc2cc3cc(OC4CC(OC5CC(O)C(O)C(C)O5)C(O)C(C)O4)c(C)c(O)c3c(O)c2C(=O)C1OC1CC(OC2CC(OC3CC(C)(O)C(O)C(C)O3)C(O)C(C)O2)C(O)C(C)O1 (centres unmarked) [Analogue 62] | > 10 | 7.834 |  | 
12 | COC(=O)C(Cc1ccccc1)NC(=O)C(Cc1ccccc1)NC(=O)C(OC)C1Cc2cc3cc(OC4CC(OC5CC(O)C(O)C(C)O5)C(O)C(C)O4)c(C)c(O)c3c(O)c2C(=O)C1OC1CC(OC2CC(OC3CC(C)(O)C(O)C(C)O3)C(O)C(C)O2)C(O)C(C)O1 (centres unmarked) [Analogue 63, MTMSA-Phe-Phe] | 1.13 | 0.232 | 4.9 | GI50 (PANC-1 cells): 1.96 µM; GI50 [3]: 0.491 µM; GI50 [4]: 3.05 µM; GI50 (HCT 116 cells): 0.437 µM; GI50 ([5]; read-out: VCaP Prostate Cancer TMPRSS2-ERG GI50, 72 h growth inhibition, VCaP cells): 0.442 µM; Ratio of median GI50 Prostate cells lacking TMPRSS2-ERG:VCaP ([5]; selectivity for VCaP over other prostate cancer cell lines): 2.6; TC-71 EWS-FLI1 Type 1 GI50 [6]: 0.211 µM; GI50 [7]: 0.91 µM; GI50 (DU 145 cells): 0.159 µM; GI50 [8]: 0.542 µM; Ratio of Median GI50 non-Ewing sarcoma:Ewing sarcoma (Selectivity Index) ([9]; median GI50 non-Ewing panel over Ewing panel): 3.5; Selectivity Index ratio Analogues:MTM (1) ([9]; selectivity index relative to MTM (1)): 2.3; GI50 (DMS 114 cells): 2.31 µM; GI50 ([10]; read-out: 5838 Ewing Sarcoma EWS-ERG GI50, 72 h growth inhibition, 5838 cells): 0.579 µM; Ratio of median GI50 Non-Ewing sarcoma cell lines (cf Table 3):5838 ([10]; selectivity for 5838 cells): 3.4; GI50 (HeLa cells): 1.77 µM
13 | CO[C@H](C(=O)O)[C@@H]1Cc2cc3cc(OC4CC(OC5CC(O)[C@H](O)C(C)O5)[C@H](O)C(C)O4)c(C)c(O)c3c(O)c2C(=O)[C@H]1OC1CC(OC2CC(OC3CC(C)(O)[C@H](O)C(C)O3)[C@@H](O)C(C)O2)[C@H](O)C(C)O1 (some centres unmarked) [MTMSA (2), Mithramycin SA, reference compound] |  | >10 |  | GI50 ([1]; Homo sapiens, PC-3, 72 h): > 10 µM
14 | Mithramycin SA Phenylalanine [MTMSA-Phe (4), reference compound] | 0.91 | 0.032 |  | GI50 [11]: 0.261 µM; GI50 (PANC-1 cells): 0.261 µM; GI50 [4]: 0.091 µM; GI50 (HCT 116 cells): 0.256 µM; TC-71 EWS-FLI1 Type 1 GI50 [6]: 0.143 µM; GI50 [7]: 0.156 µM; GI50 (DU 145 cells): 0.315 µM; GI50 (A549 cells): 1.24 µM; GI50 [8]: 0.072 µM; GI50 ([9]; read-out: Median GI50 in Ewing sarcoma cell lines, median over 8 Ewing sarcoma cell lines, 72 h): 0.117 µM; GI50 (DMS 114 cells): 0.483 µM; GI50 (HeLa cells): 0.545 µM
